Measurements reported in patent publication US20050215548A1 (Cyclacel Limited, priority 2002, published 2005).
Where two headings read alike, the source gives them in different places.

Columns and labels:
[1] = system: MCF7; assay: 72-h MTT cytotoxicity assay, MCF7; assay type: cell-based; conditions: Homo sapiens, MCF7, Breast adenocarcinoma, read-out: Anti-proliferative activity, 72-h MTT IC50
Description: (§1) Representative bisarylsulfonamide compounds were tested on a panel of transformed and non-transformed human cell lines, using a standard 72-h MTT cytotoxicity assay [Haselsberger K et al, ibid].

[2] = system: A549; assay: 72-h MTT cytotoxicity assay, A549; assay type: cell-based; conditions: Homo sapiens, A549, Lung carcinoma, read-out: Anti-proliferative activity, 72-h MTT IC50
Description: as §1

[3] = target: T1, HDM2 (Homo sapiens, UniProt Q00987); assay: Fluorescence polarisation competitive HDM2 binding assay
T1 construct: Recombinant HDM2 (1.5 μg per well) in TBS-BSA buffer
Outline: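 Recombinant HDM2 (1.5 μg/well) was preincubated 5 min at room temperature with serially diluted compound in 50 mM Tris pH 7.4, 150 mM NaCl, 0.1% BSA, 5% DMSO final. Fluorescein-labelled p53 peptide (0.2 μM) was then added for 45 min. Polarisation was read at 485/520 nm and IC50 derived from dose-response curves.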

[4] = system: H1299; assay: 72-h MTT cytotoxicity assay, H1299; assay type: cell-based; conditions: Homo sapiens
Outline: (§2)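 Bisarylsulfonamides are applied to human cancer cells and growth inhibition is read by MTT. H1299 lung carcinoma lacks p53 and expresses little HDM2, SJSA-1 osteosarcoma-type cells are p53 wild-type with high HDM2, and AGS gastric cells retain wild-type p53.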

[5] = system: HeLa; assay: 72-h MTT cytotoxicity assay, HeLa; assay type: cell-based; conditions: Homo sapiens, Cervical carcinoma, read-out: Anti-proliferative activity, 72-h MTT IC50
Description: as §1

[6] = system: DU145; assay: 72-h MTT cytotoxicity assay, DU145; assay type: cell-based; conditions: Homo sapiens, DU-145, 72 h; DU145, Prostate carcinoma; read-out: Anti-proliferative activity, 72-h MTT IC50
Description: as §1

[7] = system: sarcoma cell lines; assay: 72-h MTT panel, average sarcomas; assay type: cell-based; conditions: Homo sapiens, average over sarcoma cell lines, read-out: Anti-proliferative activity, 72-h MTT IC50, Average sarcomas
Description: as §1
(§3) This differential selectivity further supports the notion that the bisarylsulfonamides modulate cellular HDM2 function. It is known that HDM2 amplification is particularly common in soft tissue sarcomas and osteosarcomas [Momand J et al, ibid; Bartel F, Meye A, Wurl P, Kappler M, Bache M, Lautenschlager C, Grunbaum U, Schmidt H, Taubert H; Int. J. Cancer 2001; 95: 168-175].

[8] = system: Messa; assay: 72-h MTT cytotoxicity assay, Messa; assay type: cell-based; conditions: Homo sapiens, MES-SA, Uterus sarcoma, read-out: Anti-proliferative activity, 72-h MTT IC50
Description: as §1

[9] = system: SK-N-MC; assay: 72-h MTT cytotoxicity assay, SK-N-MC; assay type: cell-based; conditions: Homo sapiens, Neuriepithelioma, read-out: Anti-proliferative activity, 72-h MTT IC50
Description: as §1

[10] = system: SKUT-1; assay: 72-h MTT cytotoxicity assay, SKUT-1; assay type: cell-based; conditions: Homo sapiens, SK-UT-1, 72 h; SKUT-1, Uterus leiomyosarcoma; read-out: Anti-proliferative activity, 72-h MTT IC50
Description: as §1

[11] = system: E2F transcription factors; assay: E2F reporter gene assay (A549-derived luciferase reporter cell line); assay type: cell-based; conditions: Homo sapiens
Outline: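 A549-derived cell line stably carrying an E2F response element driving a luciferase reporter gene (Mercury Cell Cycle Profiling System cassette). Run the same way as the p53 reporter assay, with luciferase read-out.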

[12] = system: IMR90; assay: 72-h MTT cytotoxicity assay, IMR90; assay type: cell-based; conditions: Homo sapiens, IMR-90, 72 h; IMR90, Lung fibroblasts; read-out: Anti-proliferative activity, 72-h MTT IC50
Description: as §1

[13] = system: HS27; assay: 72-h MTT cytotoxicity assay, HS27; assay type: cell-based; conditions: Homo sapiens, HS27, Foreskin fibroblasts, read-out: Anti-proliferative activity, 72-h MTT IC50
Description: as §1

[14] = system: SJSA-1; assay: 72-h MTT cytotoxicity assay, SJSA-1; assay type: cell-based; conditions: Homo sapiens
Outline: as §2

[15] = system: transformed human cell lines; assay: 72-h MTT panel, average transformed; assay type: cell-based; conditions: average over transformed cell lines, read-out: Anti-proliferative activity, 72-h MTT IC50, Average transformed
Description: as §1, §3

[16] = system: Nci-H460; assay: 72-h MTT cytotoxicity assay, Nci-H460; assay type: cell-based; conditions: Homo sapiens, Nci-H460, Large cell lung carcinoma, read-out: Anti-proliferative activity, 72-h MTT IC50
Description: as §1

[17] = system: Messa-Dx5; assay: 72-h MTT cytotoxicity assay, Messa-Dx5; assay type: cell-based; conditions: Homo sapiens, MES-SA/Dx5, 72 h; Messa-Dx5, Uterus sarcoma; read-out: Anti-proliferative activity, 72-h MTT IC50
Description: as §1

[18] = system: AGS; assay: 72-h MTT cytotoxicity assay, AGS; assay type: cell-based; conditions: Homo sapiens
Outline: as §2

[19] = system: HT29; assay: 72-h MTT cytotoxicity assay, HT29; assay type: cell-based; conditions: Homo sapiens, HT-29, 72 h; HT29, Colon adenocarcinoma; read-out: Anti-proliferative activity, 72-h MTT IC50
Description: as §1

[20] = system: Saos-2; assay: 72-h MTT cytotoxicity assay, Saos-2; assay type: cell-based; conditions: Homo sapiens, Saos-2, Osteosracoma, read-out: Anti-proliferative activity, 72-h MTT IC50
Description: as §1

[21] = fluorescence polarisation assay, Table 3, read-out: In vitro competitive HDM2 binding assay IC50
[22] = fluorescence polarisation format, Table 1, read-out: IC50 In vitro competitive HDM2 binding assay
[23] = NCI-H1299, 72 h, H1299, Large cell lung carcinoma, Table 2, read-out: Anti-proliferative activity, 72-h MTT IC50
[24] = NCI-H1299, 72-h MTT, Table 1, read-out: IC50 Anti-proliferative effect on cell line H 1299
[25] = after 3-h treatment with test compounds, read-out: IC50 E2F reporter, Non-synchronised cells
[26] = 72 h, SJSA-1, Osteosracoma, Table 2, read-out: Anti-proliferative activity, 72-h MTT IC50
[27] = SJSA-1, 72-h MTT, Table 1, read-out: IC50 Anti-proliferative effect on cell line SJSA-1
[28] = 72-h MTT, Table 1, read-out: IC50 Anti-proliferative effect on cell line AGS
[29] = 72 h, Gastric adenocarcinoma, Table 2, read-out: Anti-proliferative activity, 72-h MTT IC50
[30] = after 3-h treatment, synchronisation with 0.3 mM mimosine for 24 h, followed by wash-out, read-out: IC50 E2F reporter, Synchronised cells

T1 sequence (Q00987 whole entry): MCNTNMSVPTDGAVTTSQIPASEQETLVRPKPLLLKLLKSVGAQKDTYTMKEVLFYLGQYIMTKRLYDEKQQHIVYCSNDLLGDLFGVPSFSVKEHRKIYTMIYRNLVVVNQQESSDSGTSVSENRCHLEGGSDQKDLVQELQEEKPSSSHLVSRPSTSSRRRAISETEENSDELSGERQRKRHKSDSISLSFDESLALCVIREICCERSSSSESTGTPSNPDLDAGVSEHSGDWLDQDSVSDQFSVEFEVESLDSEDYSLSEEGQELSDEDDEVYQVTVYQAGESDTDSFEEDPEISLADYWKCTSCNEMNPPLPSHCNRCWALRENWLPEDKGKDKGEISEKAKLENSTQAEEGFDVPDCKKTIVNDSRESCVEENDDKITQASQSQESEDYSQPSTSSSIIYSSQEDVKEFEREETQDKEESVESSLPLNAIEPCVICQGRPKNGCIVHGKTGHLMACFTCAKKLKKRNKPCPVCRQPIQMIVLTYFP

SMILES	IC50 [1] [µM]	IC50 [2] [µM]	IC50 [3, 21] [µM]	IC50 [3, 22] [µM]	IC50 [4, 23] [µM]	IC50 [4, 24] [µM]	IC50 [5] [µM]	IC50 [6] [µM]	IC50 [7] [µM]	IC50 [8] [µM]	IC50 [9] [µM]	IC50 [10] [µM]	IC50 [11, 25] [µM]	IC50 [12] [µM]	IC50 [13] [µM]	IC50 [14, 26] [µM]	IC50 [14, 27] [µM]	IC50 [15] [µM]	IC50 [16] [µM]	IC50 [17] [µM]	further results
O=[N+]([O-])c1cc(S(=O)(=O)Nc2ccc(Cl)cc2)sc1Cl [Compound 2, 5-Chloro-4-nitrothiophene-2-sulfonic acid (4-chlorophenyl)-amide]	2.7	5.2	26.4 ± 3.4	26.4 ± 3.4	4.4	5.1 ± 0.7	2.8	3.1	10.2 ± 2.7	13.1	3	8.8	23.2 ± 4	23.1	17.3	13.5	13.6 ± 1.1	5.7 ± 3.9	3.3	9.5	IC50 ([4]; NCI-H1299, H1299, Example 9, read-out: anti-proliferative IC50 concentration determined for each cell line): 5 µM; IC50 ([14]; SJSA-1, Example 9, read-out: anti-proliferative IC50 concentration determined for each cell line): 15 µM; IC50 [18, 28]: 1.1 ± 0.2 µM; IC50 [18, 29]: 1.2 µM; IC50 ([18]; Example 9, read-out: anti-proliferative IC50 concentration determined for each cell line): 1 µM; IC50 [19]: 2.1 µM; IC50 [20]: 9.5 µM
O=[N+]([O-])c1cc(S(=O)(=O)Nc2ccc(F)cc2)sc1Cl [Compound 3, 5-Chloro-4-nitrothiophene-2-sulfonic acid (4-fluorophenyl)amide]	1.9	5.9	41.9 ± 5.8	41.9 ± 5.8	5.2	5.7 ± 0.4	2.7	3.6	12.1 ± 3.8	18.3	3.8	14.1	28.8 ± 2.3	19.8	15.2	14.1	17.1 ± 0.4	6.9 ± 5	5.2	12.1	IC50 [11, 30]: 69 ± 30 µM; IC50 [18, 28]: 1.5 ± 0.3 µM; IC50 [18, 29]: 1.7 µM; IC50 [19]: 2.3 µM; IC50 [20]: 8.9 µM
O=[N+]([O-])c1cc(S(=O)(=O)Nc2ccc(C(F)(F)F)cc2)sc1Cl [Compound 6, 5-Chloro-4-nitrothiophene-2-sulfonic acid (4-trifluoromethylphenyl)amide]	3.3	10	20.4 ± 1.4	20.4 ± 1.4	4.9	8.1 ± 1.3	3.9	6.1	13.7 ± 3.1	16	2.9	15	37.5 ± 12.9	29.8	21.4	17.8	22.5 ± 0.6	8.4 ± 5.1	8	15.5	IC50 [11, 30]: 39 µM; IC50 [18, 28]: 2 ± 0.3 µM; IC50 [18, 29]: 2.2 µM; IC50 [19]: 3.5 µM; IC50 [20]: 12 µM
